Source: ChEMBL document CHEMBL1201862, “PubChem BioAssay data set” (2004)
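Results reflect a 48-hour exposure of cells in 96-well plates to compound at five concentrations. GI50 marks 50% less growth.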 Calls of active or inactive are those of the source. No stated cut-off is given here; in the data, active = GI50 up to about 1.1 µM and inactive = higher.

Assays:
Test in all cases: NCI anticancer screen, dose series, 48 h
LOX IMVI = test system: LOX IMVI
HCT-15 = test system: HCT-15
MOLT-4 = test system: MOLT-4
HCT-116 = test system: HCT-116
SNB-75 = test system: SNB-75
UO-31 = test system: UO-31
ACHN = test system: ACHN
RXF 393 = test system: RXF 393
SW-620 = test system: SW-620
PC-3 = test system: PC-3
UACC-62 = test system: UACC-62
786-0 = test system: 786-0
TK-10 = test system: TK-10
IGROV-1 = test system: IGROV-1
Malme-3M = test system: Malme-3M
OVCAR-4 = test system: OVCAR-4
COLO 205 = test system: COLO 205
NCI-H522 = test system: NCI-H522
SK-OV-3 = test system: SK-OV-3
EKVX = test system: EKVX
SNB-19 = test system: SNB-19
T47D = test system: T47D
MDA-N = test system: MDA-N
KM12 = test system: KM12
MDA-MB-435 = test system: MDA-MB-435
SR = test system: SR
NCI-H460 = test system: NCI-H460
SF-539 = test system: SF-539
SF-295 = test system: SF-295
M14 = test system: M14
K562 = test system: K562
OVCAR-5 = test system: OVCAR-5
OVCAR-3 = test system: OVCAR-3
HOP-92 = test system: HOP-92
HL-60 = test system: HL-60
HT-29 = test system: HT-29
BT-549 = test system: BT-549
NCI-H226 = test system: NCI-H226
SK-MEL-28 = test system: SK-MEL-28
MDA-MB-231 = test system: MDA-MB-231
HOP-62 = test system: HOP-62
DU-145 = test system: DU-145
A549 = test system: A549
MCF7 = test system: MCF7
UACC-257 = test system: UACC-257
U-251 = test system: U-251
OVCAR-8 = test system: OVCAR-8
NCI-H23 = test system: NCI-H23
A498 = test system: A498
NCI/ADR-RES = test system: NCI/ADR-RES
CAKI-1 = test system: CAKI-1
RPMI-8226 = test system: RPMI-8226
Hs-578T = test system: Hs-578T
SN12C = test system: SN12C
SF-268 = test system: SF-268
SK-MEL-5 = test system: SK-MEL-5
CCRF-CEM = test system: CCRF-CEM
SK-MEL-2 = test system: SK-MEL-2
HCC 2998 = test system: HCC 2998

Measured: GI50

O=C(CC1C=Cc2ccccc2N1C(=O)c1ccccc1)c1ccccc1 (centres undefined)
inactive: LOX IMVI 23.6 µM | MOLT-4 11.7 µM | HCT-116 16 µM | SNB-75 45.2 µM | UO-31 20.4 µM | ACHN 35.6 µM | RXF 393 47.2 µM | SW-620 33.6 µM | PC-3 26.5 µM | UACC-62 11.7 µM | 786-0 29.3 µM | TK-10 36.3 µM | IGROV-1 19.1 µM | Malme-3M 21.7 µM | OVCAR-4 34.8 µM | COLO 205 19.5 µM | NCI-H522 13.8 µM | SK-OV-3 30.9 µM | EKVX 12.6 µM | SNB-19 27.7 µM | T47D 44.2 µM | MDA-N 16.1 µM | KM12 19.3 µM | MDA-MB-435 20.4 µM | SR 11.9 µM | NCI-H460 22.8 µM | SF-539 22.6 µM | SF-295 27 µM | M14 20.1 µM | K562 19.9 µM | OVCAR-5 25.5 µM | OVCAR-3 13.4 µM | HOP-92 24 µM | HL-60 14 µM | HT-29 17.1 µM | BT-549 23.8 µM | NCI-H226 34.4 µM | SK-MEL-28 30.1 µM | MDA-MB-231 21.9 µM | HOP-62 30.6 µM | DU-145 50.8 µM | A549 22.5 µM | MCF7 29.1 µM | UACC-257 20.5 µM | U-251 23.1 µM | OVCAR-8 29.2 µM | NCI-H23 23 µM | A498 28.9 µM | NCI/ADR-RES 25.8 µM | CAKI-1 34.2 µM | RPMI-8226 10.9 µM | Hs-578T 25.1 µM | SN12C 27 µM | SF-268 27.1 µM | SK-MEL-5 13.3 µM | CCRF-CEM 36.1 µM | SK-MEL-2 17.3 µM
26.2 µM: HCT-15

O=C(NNC(=O)c1ccco1)c1ccco1
> 100 µM: HCT-15
inactive: LOX IMVI > 100 µM | MOLT-4 > 100 µM | HCT-116 > 100 µM | SNB-75 55 µM | UO-31 > 100 µM | RXF 393 > 100 µM | SW-620 > 100 µM | PC-3 > 100 µM | UACC-62 > 100 µM | 786-0 > 100 µM | TK-10 > 100 µM | IGROV-1 > 100 µM | Malme-3M 39.6 µM | OVCAR-4 > 100 µM | COLO 205 > 100 µM | NCI-H522 15 µM | SK-OV-3 > 100 µM | EKVX > 100 µM | SNB-19 > 100 µM | T47D > 100 µM | MDA-N > 100 µM | KM12 > 100 µM | MDA-MB-435 > 100 µM | SR > 100 µM | NCI-H460 > 100 µM | SF-539 > 100 µM | SF-295 > 100 µM | M14 > 100 µM | K562 > 100 µM | OVCAR-5 > 100 µM | OVCAR-3 > 100 µM | HL-60 > 100 µM | HT-29 > 100 µM | BT-549 > 100 µM | NCI-H226 > 100 µM | SK-MEL-28 > 100 µM | MDA-MB-231 > 100 µM | HOP-62 > 100 µM | DU-145 > 100 µM | A549 > 100 µM | MCF7 > 100 µM | UACC-257 > 100 µM | U-251 > 100 µM | OVCAR-8 > 100 µM | A498 > 100 µM | NCI/ADR-RES > 100 µM | CAKI-1 > 100 µM | RPMI-8226 > 100 µM | Hs-578T > 100 µM | SN12C > 100 µM | SF-268 > 100 µM | SK-MEL-5 > 100 µM | CCRF-CEM > 100 µM | SK-MEL-2 > 100 µM

COC1=C(C)C(=O)c2c(c(COC(N)=O)c3n2CC2C3N2C)C1=O (centres undefined)
active: LOX IMVI < 0.01 µM | MOLT-4 < 0.0147 µM | HCT-116 < 0.0125 µM | SNB-75 < 0.0179 µM | UO-31 < 0.0145 µM | ACHN < 0.01 µM | RXF 393 < 0.0331 µM | SW-620 < 0.0113 µM | PC-3 0.0555 µM | UACC-62 < 0.0114 µM | 786-0 < 0.01 µM | TK-10 0.0117 µM | IGROV-1 0.0425 µM | Malme-3M 0.0495 µM | OVCAR-4 0.0826 µM | COLO 205 < 0.0157 µM | NCI-H522 < 0.0124 µM | SK-OV-3 < 0.0156 µM | EKVX 0.14 µM | SNB-19 < 0.0115 µM | T47D 0.0301 µM | MDA-N 0.019 µM | KM12 < 0.0166 µM | MDA-MB-435 0.0189 µM | SR < 0.01 µM | NCI-H460 < 0.01 µM | SF-539 0.0112 µM | SF-295 < 0.01 µM | M14 < 0.01 µM | K562 0.051 µM | OVCAR-5 0.0313 µM | OVCAR-3 0.0256 µM | HOP-92 0.148 µM | HL-60 0.0296 µM | HT-29 < 0.01 µM | BT-549 0.0222 µM | NCI-H226 0.0766 µM | SK-MEL-28 0.0502 µM | MDA-MB-231 0.168 µM | HOP-62 < 0.01 µM | DU-145 < 0.01 µM | A549 < 0.01 µM | MCF7 < 0.01 µM | UACC-257 < 0.0107 µM | U-251 < 0.01 µM | OVCAR-8 < 0.0191 µM | NCI-H23 < 0.0108 µM | A498 0.0519 µM | NCI/ADR-RES < 0.025 µM | CAKI-1 < 0.01 µM | RPMI-8226 < 0.0154 µM | Hs-578T 0.16 µM | SN12C 0.0132 µM | SF-268 0.0256 µM | SK-MEL-5 0.0209 µM | CCRF-CEM 0.0154 µM | SK-MEL-2 0.0361 µM
< 0.0118 µM: HCT-15

ClC(Cl)(Cl)C1=N[C@H]2[C@H](Br)[C@@H]3O[C@@H](c4ccccc4)[C@H](c4ccccc4)O[C@@H]3[C@H]2O1
inactive: LOX IMVI 17.1 µM | MOLT-4 18.2 µM | HCT-116 18.7 µM | SNB-75 20.9 µM | HCC 2998 15.2 µM | UO-31 20.7 µM | ACHN 17.3 µM | RXF 393 20.5 µM | SW-620 19.6 µM | PC-3 16 µM | UACC-62 16.3 µM | 786-0 21.4 µM | TK-10 20.4 µM | IGROV-1 15.3 µM | Malme-3M 19.2 µM | OVCAR-4 18.7 µM | COLO 205 16.3 µM | NCI-H522 10.9 µM | SK-OV-3 18.5 µM | EKVX 26.2 µM | SNB-19 27.4 µM | T47D 30.2 µM | MDA-N 20.3 µM | KM12 20.1 µM | MDA-MB-435 20.7 µM | SR 21.1 µM | NCI-H460 16 µM | SF-295 17.1 µM | M14 23.8 µM | K562 21.2 µM | OVCAR-5 18.9 µM | OVCAR-3 16.6 µM | HOP-92 16.5 µM | HT-29 20.5 µM | BT-549 24.9 µM | NCI-H226 19.8 µM | SK-MEL-28 20.3 µM | MDA-MB-231 23 µM | HOP-62 18.6 µM | DU-145 26.5 µM | A549 21.5 µM | MCF7 17.3 µM | UACC-257 18.3 µM | U-251 17.1 µM | OVCAR-8 17.6 µM | NCI-H23 21 µM | A498 17.2 µM | NCI/ADR-RES 25.7 µM | CAKI-1 16 µM | RPMI-8226 16.2 µM | Hs-578T 23.8 µM | SN12C 20.1 µM | SF-268 18.4 µM | SK-MEL-5 17.3 µM | CCRF-CEM 17.7 µM | SK-MEL-2 16.2 µM
27.2 µM: HCT-15

OCC(Cn1cncn1)(c1ccc(F)cc1F)n1cncn1 (centres undefined)
> 100 µM: HCT-15
inactive: LOX IMVI > 100 µM | MOLT-4 > 100 µM | HCT-116 > 100 µM | SNB-75 > 100 µM | HCC 2998 > 100 µM | UO-31 > 100 µM | ACHN > 100 µM | RXF 393 > 100 µM | SW-620 > 100 µM | PC-3 > 100 µM | UACC-62 > 100 µM | 786-0 66.1 µM | TK-10 > 100 µM | IGROV-1 > 100 µM | Malme-3M > 100 µM | COLO 205 > 100 µM | NCI-H522 > 100 µM | SK-OV-3 > 100 µM | SNB-19 > 100 µM | T47D > 100 µM | MDA-N > 100 µM | KM12 > 100 µM | MDA-MB-435 > 100 µM | SR > 100 µM | NCI-H460 > 100 µM | SF-539 > 100 µM | SF-295 > 100 µM | M14 > 100 µM | K562 > 100 µM | OVCAR-5 > 100 µM | OVCAR-3 > 100 µM | HL-60 > 100 µM | HT-29 > 100 µM | BT-549 > 100 µM | NCI-H226 > 100 µM | SK-MEL-28 > 100 µM | MDA-MB-231 > 100 µM | HOP-62 > 100 µM | DU-145 > 100 µM | A549 > 100 µM | MCF7 > 100 µM | UACC-257 > 100 µM | U-251 > 100 µM | OVCAR-8 > 100 µM | NCI-H23 > 100 µM | A498 38.5 µM | NCI/ADR-RES > 100 µM | CAKI-1 > 100 µM | RPMI-8226 > 100 µM | Hs-578T > 100 µM | SN12C > 100 µM | SF-268 > 100 µM | SK-MEL-5 > 100 µM | CCRF-CEM > 100 µM | SK-MEL-2 > 100 µM
